Source: patent US20060069132A1, “Azolecarboxamide herbicides” (priority 2004, published 2006)

Tests used:
velvetleaf [1] = assay: Test A pre-/postemergence herbicide test; assay type: in vivo, Abutilon theophrasti
Procedure, shortened: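 Greenhouse injury scoring (0–100, complete control = 100) at approximately ten days follows simultaneous pre- and postemergence application. Soil received a directed spray after seeding; seedlings of 2–10 cm at the one- to two-leaf stage were sprayed to runoff.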

corn = assay: Test B pre-/postemergence herbicide test; assay type: in vivo, Zea mays; settings: for Plant response rating, Corn: preemergence; for Corn plant response rating: postemergence, visual rating, scale 0 (no effect) to 100 (complete control)
Procedure, shortened: (§1)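 Plants compared with untreated controls 13–15 days post-treatment and given a visual 0–100 injury score. Applications: preemergence to seeds; postemergence at 1- to 4-leaf (2–18 cm); paddy species flooded, 2-leaf stage. Vehicle non-phytotoxic, surfactant included.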

large crabgrass = assay: Test B pre-/postemergence herbicide test; assay type: in vivo, Digitaria sanguinalis; settings: for Plant response rating, Crabgrass, Large: preemergence; for Crabgrass, Large plant response rating: postemergence, visual rating, scale 0 (no effect) to 100 (complete control)
Procedure, shortened: as §1

Surinam grass = assay: Test C pre-/postemergence herbicide test; assay type: in vivo, Urochloa decumbens; settings: for Plant response rating (0 = no effect, 100 = complete control), Surinam Grass: 62 g ai/ha; for Plant response rating (0 = no effect, 100 = complete control), Surinam Grass / Plant response rating, Surinam Grass: preemergence; for Plant response rating, Surinam Grass: 125 g ai/ha, scale 0 (no effect) to 100 (complete control), visual, 12 to 14 days; for Surinam Grass plant response rating: Preemergence, 500 g ai/ha, scale 0 to 100, 0 no effect, 100 complete control
Procedure, shortened: (§2)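 Pre/post spray; non-phytotoxic solvent + surfactant. Post-timing 1–4 leaves, 2–18 cm. Read-out: visual % control vs untreated, day 12–14, greenhouse.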

cocklebur = assay: Test C pre-/postemergence herbicide test; assay type: in vivo, Xanthium strumarium; settings: for Plant response rating (0 = no effect, 100 = complete control), Cocklebur: 62 g ai/ha; for Plant response rating (0 = no effect, 100 = complete control), Cocklebur / Plant response rating, Cocklebur: preemergence; for Plant response rating, Cocklebur: visual, 12 to 14 days; for Cocklebur plant response rating: Preemergence, 500 g ai/ha, scale 0 to 100, 0 no effect, 100 complete control
Procedure, shortened: as §2

eastern black nightshade = assay: Test C pre-/postemergence herbicide test; assay type: in vivo, Solanum ptycanthum; settings: for Plant response rating (0 = no effect, 100 = complete control), Nightshade: 62 g ai/ha; for Plant response rating (0 = no effect, 100 = complete control), Nightshade / Plant response rating, Nightshade: preemergence; for Plant response rating, Nightshade: 125 g ai/ha, scale 0 (no effect) to 100 (complete control), visual, 12 to 14 days; for Nightshade plant response rating: Preemergence, 500 g ai/ha, scale 0 to 100, 0 no effect, 100 complete control
Procedure, shortened: as §2

pigweed = assay: Test C pre-/postemergence herbicide test; assay type: in vivo, Amaranthus retroflexus; settings: for Plant response rating (0 = no effect, 100 = complete control), Pigweed: 62 g ai/ha; for Plant response rating (0 = no effect, 100 = complete control), Pigweed / Plant response rating, Pigweed: preemergence; for Plant response rating, Pigweed: 125 g ai/ha, scale 0 (no effect) to 100 (complete control), visual, 12 to 14 days; for Pigweed plant response rating: Preemergence, 500 g ai/ha, scale 0 to 100, 0 no effect, 100 complete control
Procedure, shortened: as §2

soybean = assay: Test C pre-/postemergence herbicide test; assay type: in vivo, Glycine max; settings: for Plant response rating, Soybean: 125 g ai/ha, scale 0 (no effect) to 100 (complete control), visual, 12 to 14 days; for Soybean plant response rating: Preemergence, 500 g ai/ha, scale 0 to 100, 0 no effect, 100 complete control
Procedure, shortened: as §2

velvetleaf [2] = assay: Test C pre-/postemergence herbicide test; assay type: in vivo, Abutilon theophrasti; settings: for Plant response rating, Velvetleaf: 125 g ai/ha, scale 0 (no effect) to 100 (complete control), visual, 12 to 14 days, preemergence; for Velvetleaf plant response rating: Preemergence, 500 g ai/ha, scale 0 to 100, 0 no effect, 100 complete control
Procedure, shortened: as §2

[3] = 500 g ai/ha, visual rating 0-100, 0 no effect, 100 complete control
[4] = 125 g ai/ha, 0 to 100 scale, 0 is no effect, 100 is complete control
[5] = 125 g ai/ha, scale 0 (no effect) to 100 (complete control)
[6] = 250 g ai/ha, scale 0 to 100 (0 no effect, 100 complete control)

SMILES | Plant response rating, Corn (corn; [3]) | Corn plant response rating (corn; 125 g ai/ha) | Corn plant response rating (corn; 500 g ai/ha) | Plant response rating, Corn (corn; [4]) | Plant response rating, Crabgrass, Large (large crabgrass; [3]) | Crabgrass, Large plant response rating (large crabgrass; 125 g ai/ha) | Crabgrass, Large plant response rating (large crabgrass; 500 g ai/ha) | Plant response rating (0 = no effect, 100 = complete control), Surinam Grass (Surinam grass) | Plant response rating, Surinam Grass (Surinam grass) | Surinam Grass plant response rating (Surinam grass) | Plant response rating (0 = no effect, 100 = complete control), Cocklebur (cocklebur) | Plant response rating, Cocklebur (cocklebur; [5]) | Plant response rating, Cocklebur (cocklebur; [6]) | Cocklebur plant response rating (cocklebur) | Plant response rating (0 = no effect, 100 = complete control), Nightshade (eastern black nightshade) | Plant response rating, Nightshade (eastern black nightshade) | Nightshade plant response rating (eastern black nightshade) | Plant response rating (0 = no effect, 100 = complete control), Pigweed (pigweed) | Plant response rating, Pigweed (pigweed) | Pigweed plant response rating (pigweed) | also measured
CCn1nc(C(C)(C)C)cc1C(=O)Nc1cccc(S(=O)(=O)C(F)(F)F)c1 [Compound 134] | 10 | 20 | 30 | 0 | 100 | 30 | 30 | 0 | 15 | 75 | 0 | 0 | 0 | 0 | 90 | 95 | 100 | 95 | 95 | 100 | Velvetleaf plant response rating (velvetleaf [1]; Postemergence, 250 g ai/ha, 0 to 100 scale, 0 no effect, 100 complete control): 20; Plant response rating, Velvetleaf (velvetleaf [1]; Postemergence, 1000 g ai/ha, 0 to 100 scale, 0 no effect, 100 complete control): 20; Velvetleaf plant response rating (velvetleaf [1]; Preemergence, 1000 g ai/ha, visual rating, 0 to 100 scale (0 no effect, 100 complete control)): 40; Velvetleaf plant response rating (velvetleaf [1]; preemergence, 250 g ai/ha, visual injury, 0 to 100 scale (0 no effect, 100 complete control)): 15; Plant response rating, Crabgrass, Large (large crabgrass; [4]): 80; Plant response rating (0 = no effect, 100 = complete control), Soybean (soybean; 62 g ai/ha, preemergence): 0; Plant response rating, Soybean (soybean; preemergence): 0; Soybean plant response rating (soybean): 35; Plant response rating, Velvetleaf (velvetleaf [2]): 90; Velvetleaf plant response rating (velvetleaf [2]): 100
CCN(CC)C(=O)c1cccc(NC(=O)c2cc(C(C)(C)C)nn2CC)n1 [Compound 145] | 10 | 10 | 20 | 0 | 100 | 10 | 10 | 0 | 50 | 70 | 0 | 0 | 0 | 0 | 60 | 70 | 90 | 85 | 90 | 95 | Velvetleaf plant response rating (velvetleaf [1]; Postemergence, 500 g ai/ha, 0 to 100 scale, 0 no effect, 100 complete control): 30; Plant response rating, Velvetleaf (velvetleaf [1]; Postemergence, 2000 g ai/ha, 0 to 100 scale, 0 no effect, 100 complete control): 55; Velvetleaf plant response rating (velvetleaf [1]; Preemergence, 2000 g ai/ha, visual rating, 0 to 100 scale (0 no effect, 100 complete control)): 90; Velvetleaf plant response rating (velvetleaf [1]; preemergence, 500 g ai/ha, visual injury, 0 to 100 scale (0 no effect, 100 complete control)): 75; Plant response rating, Soybean (soybean; preemergence): 10; Soybean plant response rating (soybean): 60; Plant response rating, Velvetleaf (velvetleaf [2]): 20; Velvetleaf plant response rating (velvetleaf [2]): 100
